According to patent US20240101572A1, “DIHYDROOXADIAZINONE COMPOUND AND PHARMACEUTICAL USE THEREOF” (Japan Tobacco Inc., priority 2022, published 2024):
Like-named read-outs stand apart in the source and are kept apart here.

What was measured:
full-length human PLD1 = full-length human PLD1 (Homo sapiens (Human), UniProt Q13393); test: Evaluation of human PLD1 enzyme inhibitory activity (Amplex Red / choline oxidase fluorescence); type: biochemical
Summary of the method: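 N-terminally FLAG-tagged full-length human PLD1 (1-1036), expressed in Expi293F and FLAG-purified, incubated with compound (5% DMSO final) and 1,2-diheptanoyl-sn-glycero-3-phosphocholine for 60 min at room temperature in HEPES pH 7.5 buffer. Released choline detected by Amplex Red/choline oxidase/HRP fluorescence.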

full-length human PLD2 = full-length human PLD2 (Homo sapiens (Human), UniProt O14939); test: Evaluation of human PLD2 enzyme inhibitory activity (Amplex Red / choline oxidase fluorescence); type: biochemical
Summary of the method: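 Enzyme was N-terminal FLAG-tagged full-length human PLD2 (1-933), expressed in Expi293F cells and anti-FLAG purified. Compound (5% DMSO final) was incubated with enzyme (6 nmol/L solution) and 1,2-diheptanoyl-PC (6 mmol/L solution) in HEPES pH 7.5, KCl, EGTA, MgCl2, NP-40, BSA buffer for 60 min at room temperature. Choline was detected with Amplex Red/choline oxidase/HRP.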

[1] = full-length human PLD1 enzyme, read-out: PLD1 IC50
[2] = full-length human PLD2 enzyme, read-out: PLD2 IC50
[3] = column 1 of continuation tables 2-12 to 2-14, read-out: human PLD1 enzyme inhibitory activity IC50
[4] = column 2 of continuation tables 2-12 to 2-14, read-out: human PLD2 enzyme inhibitory activity IC50

Sequence of full-length human PLD2 (O14939 whole entry): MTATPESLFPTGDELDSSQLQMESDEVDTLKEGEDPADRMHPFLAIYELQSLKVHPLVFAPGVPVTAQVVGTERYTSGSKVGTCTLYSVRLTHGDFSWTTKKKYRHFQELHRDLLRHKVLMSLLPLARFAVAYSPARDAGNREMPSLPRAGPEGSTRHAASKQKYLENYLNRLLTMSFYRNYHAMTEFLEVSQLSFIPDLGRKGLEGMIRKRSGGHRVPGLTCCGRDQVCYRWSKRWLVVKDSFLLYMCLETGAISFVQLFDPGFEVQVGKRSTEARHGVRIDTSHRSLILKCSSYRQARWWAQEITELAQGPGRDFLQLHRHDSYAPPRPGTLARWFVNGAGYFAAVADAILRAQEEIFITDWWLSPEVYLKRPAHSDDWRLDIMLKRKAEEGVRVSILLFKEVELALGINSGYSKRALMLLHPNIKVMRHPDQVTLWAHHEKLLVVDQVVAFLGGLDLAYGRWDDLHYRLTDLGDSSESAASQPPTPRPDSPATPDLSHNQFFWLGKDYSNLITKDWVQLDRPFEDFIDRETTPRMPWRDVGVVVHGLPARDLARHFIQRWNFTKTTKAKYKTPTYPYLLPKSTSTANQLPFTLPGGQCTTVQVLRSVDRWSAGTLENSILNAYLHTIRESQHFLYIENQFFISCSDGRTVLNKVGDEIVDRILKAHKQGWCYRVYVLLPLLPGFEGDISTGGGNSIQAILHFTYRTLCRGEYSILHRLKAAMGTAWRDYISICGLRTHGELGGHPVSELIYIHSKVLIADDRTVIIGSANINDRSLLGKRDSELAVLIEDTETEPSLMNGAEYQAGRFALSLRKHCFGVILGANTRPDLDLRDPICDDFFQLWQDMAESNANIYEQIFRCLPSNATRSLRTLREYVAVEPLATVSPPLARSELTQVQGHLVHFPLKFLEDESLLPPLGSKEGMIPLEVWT
Sequence of full-length human PLD1 (Q13393 other isoform, or with tags, fused parts or gaps): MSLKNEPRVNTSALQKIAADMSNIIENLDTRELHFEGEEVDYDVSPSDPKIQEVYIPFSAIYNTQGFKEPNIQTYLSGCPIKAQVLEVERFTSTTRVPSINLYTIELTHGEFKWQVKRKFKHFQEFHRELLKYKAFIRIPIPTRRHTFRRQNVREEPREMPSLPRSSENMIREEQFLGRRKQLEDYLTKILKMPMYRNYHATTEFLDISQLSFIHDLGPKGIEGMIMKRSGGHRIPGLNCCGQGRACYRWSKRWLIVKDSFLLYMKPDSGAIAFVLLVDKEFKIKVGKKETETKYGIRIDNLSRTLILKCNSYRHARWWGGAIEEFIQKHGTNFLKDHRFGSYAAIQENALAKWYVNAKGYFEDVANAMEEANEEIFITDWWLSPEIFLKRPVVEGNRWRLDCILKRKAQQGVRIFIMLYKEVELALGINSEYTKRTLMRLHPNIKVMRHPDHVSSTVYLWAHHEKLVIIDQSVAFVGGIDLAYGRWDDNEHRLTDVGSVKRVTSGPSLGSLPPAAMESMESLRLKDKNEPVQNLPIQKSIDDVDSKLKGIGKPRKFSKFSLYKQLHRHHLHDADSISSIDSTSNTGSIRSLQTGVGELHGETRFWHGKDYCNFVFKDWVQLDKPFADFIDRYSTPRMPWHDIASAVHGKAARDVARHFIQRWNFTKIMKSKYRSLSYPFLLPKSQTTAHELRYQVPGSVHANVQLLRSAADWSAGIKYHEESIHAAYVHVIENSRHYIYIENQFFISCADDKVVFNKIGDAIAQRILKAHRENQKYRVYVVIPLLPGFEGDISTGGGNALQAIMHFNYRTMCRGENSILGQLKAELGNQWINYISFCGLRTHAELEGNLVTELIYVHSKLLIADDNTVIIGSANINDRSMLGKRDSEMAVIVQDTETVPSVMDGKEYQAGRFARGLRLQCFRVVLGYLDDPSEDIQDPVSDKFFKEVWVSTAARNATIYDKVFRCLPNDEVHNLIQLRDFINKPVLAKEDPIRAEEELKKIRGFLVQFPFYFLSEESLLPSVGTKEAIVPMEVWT

SMILES | IC50 (full-length human PLD1; [1]) [nM] | IC50 (full-length human PLD2; [2]) [nM] | other results
C[C@@H](CN1CCC2(CC1)OC(=O)NN=C2c1ccc(F)cc1Br)NC(=O)c1cnn(C)c1 [Example 254] | 29 | < 10 | –
Cc1cc(C(=O)N[C@@H](C)C[C@H]2CC[C@]3(CC2)OC(=O)NN=C3c2cc(OC(F)F)ccc2C)[nH]n1 [Example 215] | < 10 | < 10 | –
CNC(=O)C(=O)NC(C)C[C@H]1CC[C@@]2(CC1)OC(=O)NN=C2c1cc(C#N)ccc1Br (mixture of isomers) [Example 2-148] | – | – | IC50 (full-length human PLD1; [3]): 140 nM; IC50 (full-length human PLD2; [4]): 46 nM
CNC(=O)C(=O)N[C@@H](C)C[C@H]1CC[C@]2(CC1)OC(=O)NN=C2c1cnc(N2CCC(F)(F)C2)cc1Cl [Example 241] | 17 | < 10 | –
[2H]C([2H])([2H])NC(=O)C(=O)N[C@@H](C)C[C@]1(OC)CC[C@@]2(CC1)OC(=O)NN=C2c1ccc(F)cc1Br [Example 2-135] | – | – | IC50 (full-length human PLD1; [3]): 20 nM; IC50 (full-length human PLD2; [4]): < 10 nM
COc1cc(C)c(C2=NNC(=O)O[C@]23CC[C@@H](C[C@H](C)NC(=O)N2CCc4cccnc4C2)CC3)cn1 [Example 258] | 186 | 249 | –
C[C@@H](C[C@H]1CC[C@]2(CC1)OC(=O)NN=C2c1cc(Cl)ccc1Cl)NC(=O)c1cn2ccccc2n1 [Example 324] | 20 | 22 | –
CNC(=O)C(=O)N[C@@H](C)CN1CCC2(CC1)OC(=O)NN=C2c1cccc(F)c1Br [Example 2-030] | 31 | 18 | –
CNC(=O)C(=O)N[C@@H](C)C[C@H]1CC[C@]2(CC1)OC(=O)NN=C2c1cc(Cl)ccc1I [Example 2-044] | < 10 | < 10 | –
CNC(=O)C(=O)N[C@@H](C)C[C@H]1CC[C@]2(CC1)OC(=O)NN=C2c1cnc(C(C)(C)O)cc1C [Example 185] | 68 | 64 | –
CNC(=O)C(=O)N[C@@H](C)C[C@H]1CC[C@]2(CC1)OC(=O)NN=C2c1ccc(Br)cc1Br [Example 60] | < 10 | < 10 | –
C[C@@H](CN1CCC2(CC1)OC(=O)NN=C2c1ccc(F)cc1Br)NC(=O)C(=O)NC12CC(C1)C2 [Example 202] | 832 | 1250 | –
CCCC(=O)N[C@@H](C)C[C@H]1CC[C@]2(CC1)OC(=O)NN=C2c1ccc(F)cc1Br [Example 42] | 247 | 261 | –
Cc1ccncc1C1=NNC(=O)O[C@]12CC[C@@H](C[C@H](C)NC(=O)c1cc(Cl)no1)CC2 [Example 113] | 17 | 13 | –
CNC(=O)C(=O)N[C@@H](C)C[C@]1(C#N)CC[C@@]2(CC1)OC(=O)NN=C2c1cc(OC(F)F)ccc1Br [Example 2-055] | 11 | < 10 | –
CC(=O)NCC(=O)N[C@@H](C)C[C@H]1CC[C@]2(CC1)OC(=O)NN=C2c1ccc(F)cc1Br [Example 213] | 86 | 115 | –
Cc1cc(C(=O)N[C@@H](C)CN2C[C@H]3CC[C@@H](C2)[C@@]32OC(=O)NN=C2c2ccc(F)cc2Cl)[nH]n1 [Example 197] | 26 | < 10 | –
Cc1cc(C(=O)N[C@@H](C)CN2CCC3(CC2)OC(=O)NN=C3c2cc(Br)c(F)cc2Cl)[nH]n1 [Example 2-016] | 19 | < 10 | –
C[C@@H](CC1CCC2(CC1)OC(=O)NN=C2c1ccncc1Br)NC(=O)c1cc2ccccc2o1 (mixture of isomers) [Example 122] | < 10 | < 10 | –
Cc1cc(C(=O)N[C@@H](C)C[C@H]2CC[C@]3(CC2)OC(=O)NN=C3c2cccc3c2OCC3)[nH]n1 [Example 107] | 85 | 139 | –
CNC(=O)C(=O)N[C@@H](C)C[C@H]1CC[C@]2(CC1)OC(=O)NN=C2c1cnc(N2CCC(F)(F)C2)cc1C [Example 248] | 17 | < 10 | –
C[C@@H](C[C@H]1CC[C@]2(CC1)OC(=O)NN=C2c1ccc(S(C)(=O)=O)cc1Cl)NC(=O)c1cc(Cl)no1 [Example 52] | 21 | < 10 | –
Cc1cc(C(=O)N[C@@H](C)C[C@H]2CC[C@]3(CC2)OC(=O)NN=C3c2cnc(N3CCOCC3)cc2Cl)[nH]n1 [Example 226] | 18 | < 10 | –
Cc1cc(F)ccc1C1=NNC(=O)O[C@]12CC[C@@H](C[C@H](C)NC(=O)N1CCCC1)CC2 [Example 136] | 155 | 170 | –
COc1cc(C)c(C2=NNC(=O)O[C@]23CC[C@@H](C[C@H](C)NC(=O)N2CCc4ncccc4C2)CC3)cn1 [Example 264] | 36 | < 10 | –
C[C@@H](C[C@H]1CC[C@]2(CC1)OC(=O)NN=C2c1ccc(F)cc1Br)NC(=O)c1cc2ccccc2o1 [Example 19] | 17 | 10 | –

SMILES | IC50 (full-length human PLD1; [1]) [nM] | IC50 (full-length human PLD2; [2]) [nM] | other results
C[C@@H](C[C@]1(C#N)CC[C@@]2(CC1)OC(=O)NN=C2c1cc(OCC(F)F)ncc1Br)NC(=O)C(=O)NC1CC1 [Example 2-101] | – | – | inhibition at 10 µM (full-length human PLD1; read-out: human PLD1 % inhibition at 10 μM): 13%; inhibition at 10 µM (full-length human PLD1; read-out: inhibition rate of PLD1 at 10 μM compound): 13%; inhibition at 10 µM (full-length human PLD2; read-out: human PLD2 % inhibition at 10 μM): 28%; inhibition at 10 µM (full-length human PLD2; read-out: inhibition rate of PLD2 at 10 μM compound): 28%
CNC(=O)C(=O)N[C@@H](C)CN1CCC2(CC1)OC(=O)NN=C2c1cn(C)nc1I [Example 2-043] | 33 | 152 | –
C[C@@H](C[C@H]1CC[C@]2(CC1)OC(=O)NN=C2c1ccc(F)cc1Cl)NC(=O)c1cc(Cl)no1 [Example 63] | < 10 | < 10 | –
Cc1cc(C(=O)N[C@@H](C)C[C@H]2CC[C@]3(CC2)OC(=O)NN=C3c2ccc(C(=O)O)cc2C)[nH]n1 [Example 201] | 328 | 371 | –
Cc1cccnc1C1=NNC(=O)O[C@]12CC[C@@H](C[C@H](C)NC(=O)c1cc3ccccc3o1)CC2 [Example 149] | 12 | < 10 | –
[2H]C([2H])([2H])NC(=O)C(=O)N[C@@H](C)C[C@]1(OC)CC[C@@]2(CC1)OC(=O)NN=C2c1cc(F)ccc1Br [Example 2-131] | – | – | IC50 (full-length human PLD1; [3]): 15 nM; IC50 (full-length human PLD2; [4]): < 10 nM
C[C@@H](C[C@H]1CC[C@]2(CC1)OC(=O)NN=C2c1cc(C#N)ccc1Br)NC(=O)c1cn(C)cn1 [Example 2-071] | 13 | < 10 | –
Cc1cc(Br)ccc1C1=NNC(=O)O[C@]12CC[C@@H](C[C@H](C)NC(=O)NC1CC1)CC2 [Example 210] | 296 | 1090 | –
CNC(=O)C(=O)N[C@@H](C)C[C@H]1CC[C@]2(CC1)OC(=O)NN=C2c1ccc(C#N)c(C)c1 [Example 205] | 35 | 102 | –
C[C@@H](C[C@H]1CC[C@]2(CC1)OC(=O)NN=C2c1cnc(N2CCOCC2)cc1Cl)NC(=O)N1CCn2nccc2C1 [Example 275] | 25 | < 10 | –
CNC(=O)C(=O)N[C@@H](C)C[C@H]1CC[C@]2(CC1)OC(=O)NN=C2c1ccc(F)cc1C(F)(F)F [Example 56] | 26 | 17 | –
CNC(=O)C(=O)N[C@@H](C)CN1CC[C@@]2(C[C@H]1C)OC(=O)NN=C2c1ccc(C#N)cc1Cl [Example 233] | 1860 | 1800 | –
C[C@@H](CN1CCC2(CC1)OC(=O)NN=C2c1cc(C#N)ccc1Br)NC(=O)C[C@@H](O)C(F)(F)F [Example 2-002] | 1250 | 1860 | –
CNC(=O)C(=O)N[C@@H](C)C[C@H]1CC[C@]2(CC1)OC(=O)NN=C2c1ccccc1S(C)(=O)=O [Example 75] | 1630 | 1990 | –
CNC(=O)C(=O)N[C@@H](C)C[C@H]1CC[C@]2(CC1)OC(=O)NN=C2c1cccc(OC(F)F)c1Br [Example 306] | < 10 | < 10 | –
CCCS(=O)(=O)c1ccc(C2=NNC(=O)O[C@]23CC[C@@H](C[C@H](C)NC(=O)C(=O)NC)CC3)c(Cl)c1 [Example 77] | 26 | < 10 | –
Cc1cc(C(=O)N[C@@H](C)C[C@H]2CC[C@]3(CC2)OC(=O)NN=C3c2ccc(C#N)cc2C)[nH]n1 [Example 153] | 27 | 28 | –
C[C@@H](CN1CCC2(CC1)OC(=O)NN=C2c1ccc(F)cc1Cl)NC(=O)c1cc2cc(F)ccc2o1 [Example 91] | 23 | 15 | –
CNC(=O)C(=O)N[C@@H](C)C[C@H]1CC[C@]2(CC1)OC(=O)NN=C2c1cc(OC(F)F)ccc1Br [Example 184] | < 10 | < 10 | –
C[C@@H](C[C@]1(C#N)CC[C@@]2(CC1)OC(=O)NN=C2c1cc(C(F)(F)F)ccc1Br)NC(=O)c1cn(C)cn1 [Example 2-079] | 11 | 10 | –
CNC(=O)C(=O)N[C@@H](C)C[C@H]1CC[C@]2(CC1)OC(=O)NN=C2c1ccc(OCC(F)(F)F)cc1Br [Example 86] | 13 | < 10 | –
C[C@@H](C[C@H]1CC[C@]2(CC1)OC(=O)NN=C2c1ccc(S(C)(=O)=O)cc1Cl)NC(=O)c1cc2cc(F)ccc2o1 [Example 117] | 21 | 18 | –
Cc1cc(C(=O)N[C@@H](C)C[C@H]2CC[C@]3(CC2)OC(=O)NN=C3c2cccc(C#N)c2Br)[nH]n1 [Example 317] | 71 | 65 | –
CNC(=O)C(=O)N[C@@H](C)C[C@H]1CC[C@]2(CC1)OC(=O)NN=C2c1cnc(N2CCC2)cc1C [Example 159] | 28 | < 10 | –
CNC(=O)C(=O)N[C@@H](C)CN1CCC2(CC1)OC(=O)NN=C2c1cc(C(C)(C)O)ccc1Br [Example 2-034] | 31 | 10 | –
